Measured values from US9164109B2, “Use of probes for unbound metabolites” (priority 2006, dated 2015).

Biological target: T1, HSA (Homo sapiens, UniProt P02768)
T1 construct: from tissue; host or cells: blood plasma of healthy adult donors, diluted to 1%
Assay: Equilibrium-binding model of UCB and HSA
Conditions: value used to calculate model [UCBf], [HSA]=6.5 μM, FIG. 2
Description: Investigations of the effects of FFA on our UCB probes are necessary because the probes are constructed from FABP mutants and FFA are abundant in plasma. Interference testing of every possible component of plasma, however, is not feasible. Therefore UCBf was measured in samples of diluted plasma, from 6 healthy adult donors, titrated with UCB. Because the [UCBf] is determined by the UCB:HSA ratio, the [HSA] of each plasma sample was measured using a Bromcresol Green Albumin Determination Kit from Sigma-Aldrich. HSA concentrations were similar for all samples and ranged from 620 to 680 μM. Plasma [FFAu] was measured with ADIFAB2 and ranged from 1.0 to 3.6 nM. The L24P19C7 probe at 0.5 μM was used to measure [UCBf] in 1% plasma (i.e., 6.2 to 6.8 μM HSA) titrated with UCB (FIG. 2). This probe has the following mutations with reference to rat Intestinal Fatty Acid Binding Protein (SEQ ID NO: 4): Y14R M18L L38V V60R A72L A73F R106C Q115R and Y117D. Without the addition of UCB, all samples yielded a [UCBf] of nearly zero, in good agreement with the 0 to 1 nM [UCBf] expected for a healthy adult. […] Indeed, the increase was consistent with the change in [UCBf] predicted using the equilibrium-binding model, confirming the accuracy of the probe in plasma.

T1 sequence (P02768 25-609): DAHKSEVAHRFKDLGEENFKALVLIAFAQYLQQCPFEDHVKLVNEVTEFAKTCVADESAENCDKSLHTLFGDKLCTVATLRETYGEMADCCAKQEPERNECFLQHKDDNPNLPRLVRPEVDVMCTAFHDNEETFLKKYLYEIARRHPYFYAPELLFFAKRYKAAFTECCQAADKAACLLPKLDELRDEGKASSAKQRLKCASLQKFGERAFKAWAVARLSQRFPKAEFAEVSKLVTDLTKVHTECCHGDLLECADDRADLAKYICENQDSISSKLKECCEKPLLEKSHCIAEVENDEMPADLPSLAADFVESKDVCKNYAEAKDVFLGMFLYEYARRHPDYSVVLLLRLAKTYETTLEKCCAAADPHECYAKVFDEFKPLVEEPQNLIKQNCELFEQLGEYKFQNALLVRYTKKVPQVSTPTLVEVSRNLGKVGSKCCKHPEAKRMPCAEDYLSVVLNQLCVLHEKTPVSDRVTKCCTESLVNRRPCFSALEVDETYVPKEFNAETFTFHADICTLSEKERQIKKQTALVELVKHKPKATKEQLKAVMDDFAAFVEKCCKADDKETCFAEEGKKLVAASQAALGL

`C=CC1=C(C)/C(=C/c2[nH]c(Cc3[nH]c(/C=C4\NC(=O)C(C)=C4C=C)c(C)c3CCC(=O)O)c(CCC(=O)O)c2C)NC1=O` [UCB, unconjugated bilirubin] showed a Kd of 19 nM.
